The text below walks through data of ChEMBL document CHEMBL3044984, “Synthesis of 2-(5, 7-Difluoro-3-indolyl)-propionic Acid (5, 7-F2-IPA) and 2-(5, 7-Difluoro-3-indolyl)isobutyric Acid (5, 7-F2-IIBA) and Their Respective Auxin and Antiauxin Activities” (2001).

In test [1] the test system is Avena sativa. The test is described as follows: Antiauxin activity in Avena sativa cv. Victory-1 assessed as auxin-induced growth inhibition at 10^-5 to 10^-4 M. Format: functional, organism-based.
The subject of test [2] is Avena sativa. The test can be described thus: Auxin activity in Avena sativa cv. Victory-1 assessed as increase of auxin-induced growth at 10^-5 M. Format: functional.
Test [3] deals with Avena sativa. The test is described as follows: Auxin activity in Avena sativa cv. Victory-1 assessed as coleoptile elongation at 3 x 10^-6 M. Format: functional, organism-based.
In test [4] the test system is Avena sativa. The test is described as follows: Antiauxin activity in Avena sativa cv. Victory-1 assessed as growth inhibition at 1 x 10^-4 M. Format: functional, organism-based.
The subject of test [5] is Avena sativa. The test can be described thus: Auxin activity in Avena sativa cv. Victory-1 assessed as coleoptile elongation. Format: functional, organism-based.
Test [6] has as its system Avena sativa. The test is described as follows: Auxin activity in Avena sativa cv. Victory-1 assessed as increase of auxin-induced growth at 5.6 x 10^-5 M. Format: functional, organism-based.
The test system of test [7] is Avena sativa. The test is described as follows: Antiauxin activity in Avena sativa cv. Victory-1 assessed as auxin-induced growth inhibition at 3 x 10^-5 M. Format: functional, organism-based.
Test [8] deals with Avena sativa. The test can be described thus: Antiauxin activity in Avena sativa cv. Victory-1 assessed as growth inhibition. Format: functional, organism-based.

Active and inactive are the calls of the source. No cut-off for these calls is given here.

On to `CC(C)(C(=O)O)c1c[nH]c2c(F)cc(F)cc12`, for which the “growth inhibition (GI)” value in the test with Avena sativa [1] and in the test with Avena sativa [4] was “Active” each time. In the test with Avena sativa [2], the Activity is recorded as 80%. In addition, the outcome in the test with Avena sativa [3] and in the test on Avena sativa [5] was Active.

For the molecule `CC(C)(C(=O)O)c1c[nH]c2c(Cl)cc(Cl)cc12`, in the test on Avena sativa [5], the result was inactive.

As for `O=C(O)Cc1c[nH]c2ccccc12`, the result in the test on Avena sativa [6] was inactive. The “growth inhibition (GI)” value in the test with Avena sativa [7] was “Active”. For the same molecule, in the test with Avena sativa [5], the result was Active.

With `O=C(O)Cc1c[nH]c2c(F)cc(F)cc12`, the “growth inhibition (GI)” value with Avena sativa [8] is “Active”.

Regarding `CC(C)(C(=O)O)c1c[nH]c2ccccc12`, the “growth inhibition (GI)” value with Avena sativa [8] was “inactive”.

Turning to `CC(C(=O)O)c1c[nH]c2c(F)cc(F)cc12` (centres undefined), the result in the test on Avena sativa [3] and in the test on Avena sativa [5] was Active. The “growth inhibition (GI)” value with Avena sativa [4] was “Active”.
